Data from US7413837B2, “Charge control agent and toner for electrostatic image development containing the same” (Orient Chemical Industries, Ltd., priority 2002, dated 2008).

Assay: confirmatory test of the sublimation
Assay type: physicochemical
Conditions: 100 mg compound mixed with 2 g resin of acid value 19 mg KOH/g in crucible, heated at 190 degrees centigrade for 1 hour
Experimental: Subsequently, the confirmatory test of the sublimation of the monoazo compound was performed. 100 mg of the monoazo compound and 2 g of the resin having 19 mg KOH/g of the acid value were added into a 25 mL crucible, and mixed. A filter paper was put on the crucible. After the bottom of crucible was heated at 190 degrees centigrade for 1 hour, an under side of the filter paper was observed.
Subsequently, the confirmatory test of the sublimation of the monoazo metals-compound was performed. 100 mg of the metals-compound and 2 g of the resin having 19 mg KOH/g of the acid value are added and mixed into a 25 mL crucible. A filter paper was put on the crucible. After the bottom of the crucible was heated at 190 degrees centigrade for 1 hour, the under side of the filter paper was observed.

**Q.** With `COC(=O)Nc1cccc2ccc(O)c(N=Nc3cc(Cl)ccc3O)c12` [I-1] as the compound, how does the “sublimation property (accretions of sublimates on under side of filter paper)” value read?
**A.** no sublimation property
